Results: patent US5767141A, “Substituted propane derivatives, a process for their preparation and the use of the compounds for treating diseases” (Hoechst Aktiengesellschaft, priority 1994, dated 1998)

Key:
[1] = target: T1, glucose-6-phosphatase system (Rattus norvegicus, UniProt F7EWB7); experiment: inhibition of the glucose-6-phosphatase system, enzyme assay in liver microsomes (phosphate liberated from glucose 6-phosphate); format: biochemical, male Wistar rats
T1 construct: To prepare the microsome fraction containing the glucose-6-phosphatase, fresh liver organs from male Wistar rats were used; from tissue; host or cells: liver microsome fraction of male Wistar rats
T1 sequence (F7EWB7 1-429): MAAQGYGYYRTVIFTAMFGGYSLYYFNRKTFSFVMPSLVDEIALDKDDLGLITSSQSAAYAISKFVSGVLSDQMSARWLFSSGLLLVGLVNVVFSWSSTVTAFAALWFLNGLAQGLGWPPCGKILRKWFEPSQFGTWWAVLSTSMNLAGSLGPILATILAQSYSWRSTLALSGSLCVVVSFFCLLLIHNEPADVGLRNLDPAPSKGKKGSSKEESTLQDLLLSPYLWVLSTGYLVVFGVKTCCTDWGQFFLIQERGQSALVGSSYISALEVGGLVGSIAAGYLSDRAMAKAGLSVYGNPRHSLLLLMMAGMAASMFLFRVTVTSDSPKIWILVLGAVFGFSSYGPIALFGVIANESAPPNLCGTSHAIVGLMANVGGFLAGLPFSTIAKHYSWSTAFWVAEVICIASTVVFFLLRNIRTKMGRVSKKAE
Experimental: The effect of the compounds according to the invention on the glucose-6-phosphatase system was investigated in an enzyme assay in liver microsomes.
To prepare the microsome fraction containing the glucose-6-phosphatase, fresh liver organs from male Wistar rats were used and were processed as described in the literature [Canfield, W. K. and Arion, W. J., J. Biol. Chem. 263, 7458-7460, (1988)]. This microsome fraction can be stored at -70° C. for at least 2 months without significant loss of activity.
The glucose-6-phosphatase activity was detected as indicated in the literature (Arion, W. J. in Methods Enzymol. 174, Academic Press 1989, pages 58-67) by determination of the phosphate liberated from glucose 6-phosphate. 0.1 ml of assay mixture contained glucose 6-phosphate (1 mmol/l), the test substance, 0.1 mg of microsome fraction and 100 mmol/l HEPES buffer (4-(2-hydroxyethyl)piperazine-1-ethanesulfonic acid), pH 7.0. The reaction was started by adding the enzyme. After 20 minutes at room temperature, the reaction was stopped by adding 0.2 ml of phosphate reagent. The sample was incubated at 37° C. for 30 min, and the absorption (A) of the blue color was subsequently measured at 570 nm. The inhibitory activity of the test substance emerged from comparison with a control reaction which contained no test substance according to the formula [formula] […]

[2] = test system: glucose-6-phosphatase; conditions: qualitative, literature; cited from earlier work

For CC(C)(COC(=O)/C=C(/c1ccccc1)n1cnc2ccccc21)C(OCCCc1ccc(Cl)cc1)C(=O)O (racemic) [Example 1, (±)-4-(3Z-(1-Benzimidazolyl)-3-phenylpropenoyloxy)-2-(4-chlorophenylpropyloxy)-3,3-dimethylbutanoic acid], the “inhibition of the glucose-6-phosphatase system (in words)” value ([1]; qualitative statement) was “inhibitors of the glucose-6-phosphatase system” and the IC50 ([1]; rat liver microsome fraction, glucose 6-phosphate 1 mmol/l, pH 7.0, 20 minutes at room temperature, read-out: IC50 (concentration for 50% inhibition of enzyme activity)) was 4 µM.
For S=C=Nc1ccccc1C=Cc1ccccc1N=C=S [2,2'-diisothiocyanatostilbene], the “inhibition of glucose-6-phosphatase (in words)” value [2] is listed as “non-specific inhibitors of glucose-6-phosphatase”.
In the case of CC(=O)Oc1ccccc1C=Cc1ccccc1N=C=S [2-iso-thiocyanato-2'-acetoxystilbene], the “inhibition of glucose-6-phosphatase (in words)” value [2] is given as “non-specific inhibitors of glucose-6-phosphatase”.
For O=C(O)c1cc(SSc2ccc([N+](=O)[O-])c(C(=O)O)c2)ccc1[N+](=O)[O-] [5,5'-dithiobis-2-nitrobenzoic acid], the “inhibition of glucose-6-phosphatase (in words)” value [2] is listed as “non-specific inhibitors of glucose-6-phosphatase”.
In the case of O=C(CCc1ccc(O)cc1)c1c(O)cc(O)cc1O[C@@H]1O[C@H](CO)[C@@H](O)[C@H](O)[C@H]1O [phlorrhizin], the “inhibition of glucose-6-phosphatase (in words)” value [2] is given as “non-specific inhibitors of glucose-6-phosphatase”.
